logP, logD and pKHB data for 28 compounds are collected here from ChEMBL document CHEMBL5131543, “Studying Lipophilicity Trends of Phosphorus Compounds by 31P-NMR Spectroscopy: A Powerful Tool for the Design of P-Containing Drugs” (J Med Chem, 2022).

Assay type in all cases: physicochemical
The nature of series [1]: […]-water partition coefficient, logP of compound by shake flask method based 31P-NMR analysis. The following applies: octanol/water.
Series [2] can be described thus: Octanol-water partition coefficient, logP of compound at pH 1.3 by shake flask method based 31P-NMR analysis.
Series [3] can be described thus: Lipophilicity, logD of compound at pH 1.3 by shake flask method based 31P-NMR analysis. The settings on record: buffer.
Series [4] can be described thus: Basicity of hydrogen bond, pKHB of compound by IR spectroscopy.
Series [5] is described as follows: Octanol-water partition coefficient, logP of compound by shake flask method based 31P-NMR analysis.
Series [6] can be described thus: Lipophilicity, logD of compound at pH 3 by shake flask method based 31P-NMR analysis. The following applies: buffer.
The nature of series [7]: Lipophilicity, logD of compound at pH 7.4 by shake flask method based 31P-NMR analysis. The settings on record: buffer.

SMILES strings stand for the structures.

Consider `CCOP(=O)(OCC)Oc1ccc(OC)cc1`, for which the lipophilicity (logP) – broadly, the decadic logarithm of the partition coefficient of the neutral form, usually between octanol and water – in series [1] was 2.14.
In the case of `O=P(O)(O)C(O)(c1ccccc1)P(=O)(O)O`, the lipophilicity (logP) in series [2] is -1.87.
`CCCCCCCC(O)(P(=O)(O)O)P(=O)(O)O`: in series [3], the logD (in general, the decadic logarithm of the distribution of all forms, ionised or not, between an organic phase and buffer at a given pH) was 0.6.
For the compound `CCOP(=S)(OCC)Oc1ccccc1`, the logP in series [1] was found to be 3.34.
The same measure, in the same setting: to `CCOP(=S)(OCC)Oc1ccc(OC)cc1` belongs 3.37.
On to `O=P(O)(O)C(O)(c1ccc(F)cc1)P(=O)(O)O`, for which the logD in series [3] was -1.57.
`CCOP(=O)(OCC)SCC` showed a logP in series [1] of 1.42. Also, in series [4], the pKHB amounted to 2.377.
The compound `CCOP(=O)(OCC)c1ccccc1` had a logP in series [5] of 1.1.
Consider `O=P(O)(O)C(O)(c1cc(F)c(F)c(F)c1)P(=O)(O)O`, for which the logD in series [3] is -0.69.
In series [5], `CCOP(=S)(OCC)c1ccccc1` returned a logP of 3.66.
`CCOP(=S)(OCC)SCC`: in series [1], the log partition coefficient (logP) worked out at 3.38.
Consider `CP(C)(C)=O`, for which the logP in series [1] is -1.6. The same compound displayed a pKHB in series [4] of 3.444.
On to `CP(C)(C)=S`, for which the log partition coefficient (logP) in series [1] was -0.23. The compound further yielded a pKHB in series [4] of 1.533.
Regarding `CCNP(=O)(OCC)OCC`, in series [1], the logP came out at 0.54.
As to `O=P(O)(O)C(O)(c1ccccc1F)P(=O)(O)O`, the logD in series [3] is -2.16; in series [6], -3.25.
On to `O=P(CCCO)(CCCO)CCCO`, for which, in series [1], the log partition coefficient (logP) is -2.49.
The same measure, in the same setting: to `OCCCP(=[Se])(CCCO)CCCO` belongs -0.9.
Regarding `CP(C)(C)=[Se]`, the lipophilicity (logP) in series [1] was -0.02. Besides, the pKHB in series [4] was 1.519.
`OCCCP(=S)(CCCO)CCCO` showed a logP in series [1] of -1.2.
The compound `CCCCCCCCCC(O)(P(=O)(O)O)P(=O)(O)O` came in with a pH-dependent lipophilicity (logD) in series [3] of 1.72.
As to `CCCCCCC(O)(P(=O)(O)O)P(=O)(O)O`, the pH-dependent lipophilicity (logD) in series [3] was -0.08.
On the same count and under the same terms, to `C[C@@H]1C[C@H]2[C@@H]3CCC4=CC(=O)C=C[C@]4(C)[C@@]3(F)[C@@H](O)C[C@]2(C)[C@@]1(O)C(=O)COP(=O)(O)O` [DEXAMETHASONE SODIUM PHOSPHATE] belongs 1.24.
Consider `CCOP(=O)(OCC)Oc1ccc([N+](=O)[O-])cc1` [PARAOXON], for which the logP in series [1] came out at 2.11.
The same measure, in the same setting: with `CCOP(=S)(OCC)Oc1ccc([N+](=O)[O-])cc1` [PARATHION] the figure was 3.08; with `CCOP(=O)(OCC)Oc1ccccc1` [PHOSPHORIC ACID DIETHYL ESTER PHENYL ESTER], 2.07.
Regarding `CC(C)OC(=O)OCOP(=O)(CO[C@H](C)Cn1cnc2c(N)ncnc21)OCOC(=O)OC(C)C` [TENOFOVIR DISOPROXIL], the log distribution coefficient (logD) in series [3] and in series [7] was 1.26 throughout.
`CCOP(=O)(OCC)OCC` [TRIETHYL PHOSPHATE] came in with a pKHB in series [4] of 2.574.
Consider `COP(=O)(OC)OC` [TRIMETHYL PHOSPHATE], for which the log partition coefficient (logP) in series [1] was -0.4.
